Measured values reported in patent publication US9968602B2, “Modulation of cell fates and activities by phthalazinediones” (Bach Pharma, Inc., priority 2002, dated 2018).

Legend:
[1] = test system: mitochondrial transmembrane pores; conditions: cited from earlier work
ATM-deficient mice = experiment: Thymic tumor formation and premature degeneration in ATM-deficient mice; format: in vivo; conditions: ATM deficiency
Description: In regulatory gene-dependent syndromes of premature aging, including ataxia telangiectasia, Down syndrome, trichothiodystrophy, Bloom's disease, p53 over-activity (De Boer et al., Science 296: 1276-1281, 2002; Tyner et al., Nature 415: 45-50, 2002), in which life and death of specific cell types are aberrant, appropriate treatments in vitro and in vivo with thiol redox modulators have been partially successful.
Other thiol redox modulators, such as N-acetyl cysteine and dehydrolipoic acid, also delay the premature degeneration of cells and the thymomas. Thiol redox modulators also correct the delayed differentiation and excessive production of DNA in ATM-deficient lymphoid cells (Yan et al., FASEB J. 15: 1132-1138, 2001; Lynn et al., unpublished). However, in the ATM-deficient mice, treatment was fully successful only if the thiol redox modulators were applied early, before two weeks of age and before tumor development.
Whether amino phthalazinediones with other thiol redox modulators, which suppress growth of non-transformed ATM-deficient cells in vitro, can fully suppress tumors in vivo, without toxicity, has not been rigorously evaluated. Cross-linking redox modulators such as diamide, menadione, and oxidized phthalazines are known to stop cell growth, activate caspases, and initiate apoptosis in some tumor cells (Pias and Aw, FASEB J. 16: 781-790, 2002).

MOMU-LV-Ts1 virus = experiment: Movement disorder with paralysis induced by MOMU-LV-Ts1 virus in mice; format: in vivo; conditions: daily intraperitoneal injections of 200 μg
Description: In mice infected at 2 days of age with the Ts1 virus, hind limb paralysis occurs with severe wasting, especially of immune organs. In humans infected with HIV, severe immune deficiency with sensory and motor neuropathy also results. In these wasting syndromes with disordered life and death pathways in various cells, some therapeutic attempts with thiol redox modulators other than amino phthalazinediones have been partially successful (Lynn and Wong, NeuroImmunomodulation 4: 277-284, 1997; Yan et al., FASEB J. 15: 1132-1138, 2001). In these studies, phthalazinediones plus thiol redox modulators appear to be sufficient to maintain survival and an adequate intracellular thiol redox potential in brain and in thymus.
Since maintaining this excessive and imbalanced 4 Hz oscillation requires increased […] expenditures, agents such as amino phthalazinediones, which can modulate thiol redox status, downregulate mitochondrial energy production, and gain access to the overactivated STN neurons, can potentially suppress the 4 Hz overactivity and thereby suppress and modulate the downstream network activities responsible for the symptoms. […] Whether this is due to suppression of oscillatory activity in neurons, suppression of virus-induced astrocytic inflammatory responses, or both is under investigation. […]

CN(C)C(=O)/N=N/C(=O)N(C)C [Diamide]
opening of mitochondrial transmembrane pores [1]: completely opens mitochondrial transmembrane pores

CC(=O)N[C@@H](CS)C(=O)O [N-acetyl cysteine]
premature degeneration of cells and the thymomas (ATM-deficient mice): delay

Nc1cccc2c([O-])n[nH]c(=O)c12.[Na+] [4-sodium amino phthalazinedione]
progress of the movement disorder with paralysis (MOMU-LV-Ts1 virus): significantly delay

O=C(O)CCCC[C@@H](S)CCS [dehydrolipoic acid]
premature degeneration of cells and the thymomas (ATM-deficient mice): delay
